Measurements as given in ChEMBL document CHEMBL4840311, “Discovery of novel nitrogenous heterocyclic-containing quinoxaline-1,4-di-N-oxides as potent activator of autophagy in M.tb-infected macrophages” (Eur J Med Chem, 2021).
≈ marks a conversion by molar mass, not a printed value. Calls of active or inactive are those of the source. The calls are words filed in the database; no cut-off is given here.

Key:
[1] = system: Mycobacterium tuberculosis; test: Antimycobacterial activity against Mycobacterium tuberculosis H37Rv ATCC 27294 assessed as inhibition of bacterial growth measured after 5 days by microplate alamar blue assay; format: functional; details: H37Rv ATCC 27294, 120 h, time 5 day
Vero = test: Cytotoxicity against African green monkey Vero cells assessed as reduction in cell viability measured after 72 hrs by MTT assay; format: cell-based; details: Chlorocebus sabaeus
[2] = Selectivity index, ratio of IC50 for African green monkey Vero cells measured after 72 hrs by MTT assay to MIC for antimycobacterial activity against Mycobacterium tuberculosis H37Rv ATCC 27294 assessed as inhibition of bacterial growth measured after 5 days by microplate alamar blue assay; format: toxicity; details: read-out: Selectivity Index
J774.A1 [3] = test: Cytotoxicity against mouse J774.A1 cells assessed as reduction in cell viability measured after 72 hrs by MTT assay; format: cell-based; details: J774.A1, 72 h
[4] = system: Mycobacterium tuberculosis; test: Antimycobacterial activity against Mycobacterium tuberculosis H37Rv infected in mouse J774.A1 cells assessed as log reduction of bacterial growth at 40X MIC measured after 4 days by visual colony counting analysis; format: functional; details: time 4 day
[5] = system: Mycobacterium tuberculosis; test: Antimycobacterial activity against Mycobacterium tuberculosis H37Rv infected in mouse J774.A1 cells assessed as log reduction of bacterial growth at 10X MIC measured after 4 days by visual colony counting analysis; format: functional; details: time 4 day
[6] = system: Mycobacterium tuberculosis; test: Antimycobacterial activity against Mycobacterium tuberculosis H37Rv infected in mouse J774.A1 cells assessed as log reduction of bacterial growth at 20X MIC measured after 4 days by visual colony counting analysis; format: functional; details: time 4 day
[7] = system: Mycobacterium tuberculosis; test: Antimycobacterial activity against Mycobacterium tuberculosis H37Rv infected in mouse J774.A1 cells assessed as log reduction of bacterial growth at 1X MIC measured after 4 days by visual colony counting analysis; format: functional; details: time 4 day
[8] = system: Mycobacterium tuberculosis; test: Antimycobacterial activity against Mycobacterium tuberculosis H37Rv infected in mouse J774.A1 cells assessed as log reduction of bacterial growth at 1X to 40X MIC measured after 1 day by visual colony counting analysis; format: functional
Cell membrane [9] = test: Disruption on membrane integrity in Mycobacterium tuberculosis assessed as red fluorescence at 2X to 4X MIC measured after 24 hrs by SYTO 9/PI staining based inverted flourescence microscopy method
Cell membrane [10] = test: Disruption of membrane integrity Mycobacterium tuberculosis H37Rv assessed as disturbance in energy homeostasis by measuring reduction in ATP content at 0.125 to 2.5 ug/ml measured after 24 hrs by luciferase based bioluminescence assay; details: dose 0.125-2.5 µg/ml
J774.A1 [11] = test: Induction of cytoplasmic ROS generation in mouse J774.A1 cells infected with Mycobacterium tuberculosis H37Rv at 2.5 ug/ml measured after 24 hrs by DCFH-DA staining based flow cytometry assay; format: functional, cell-based; details: dose 2.5 µg/ml
J774.A1 [12] = test: Induction of mitochondrial ROS generation in mouse J774.A1 cells infected with Mycobacterium tuberculosis H37Rv at 2.5 ug/ml measured after 24 hrs by Mito-SOX staining based flow cytometry assay; format: functional, cell-based; details: dose 2.5 µg/ml
J774.A1 [13] = test: Activation of autophagy in mouse J774.A1 cells infected with Mycobacterium tuberculosis H37Rv assessed as increase of LC3-II expression by measuring ratio of LC3-II to LC3-I at 1 ug/ml measured after 24 hrs by Western blot assay (reference value: 1.18); format: functional; details: dose 1 µg/ml
J774.A1 [14] = test: Activation of autophagy in mouse J774.A1 cells infected with Mycobacterium tuberculosis H37Rv assessed as increase of LC3-II expression by measuring ratio of LC3-II to LC3-I at 2.5 ug/ml measured after 24 hrs by Western blot assay (reference value: 1.18); format: functional; details: dose 2.5 µg/ml
J774.A1 [15] = test: Activation of autophagy in mouse J774.A1 cells infected with Mycobacterium tuberculosis H37Rv assessed as increase of LC3-II expression by measuring ratio of LC3-II to LC3-I at 5 ug/ml measured after 24 hrs by Western blot assay (reference value: 1.18); format: functional; details: dose 5 µg/ml
[16] = Half life in Wistar rat at 2.5 mg/kg, im measured for 48 hrs by HPLC method; format: ADME, organism-based; details: in vivo
[17] = Tmax in Wistar rat at 2.5 mg/kg, im measured for 48 hrs by HPLC method; format: ADME, organism-based; details: in vivo
[18] = Cmax in Wistar rat at 2.5 mg/kg, im measured for 48 hrs by HPLC method; format: ADME, organism-based; set-up: route intramuscular, dose 2.5 mg/kg, time 48 hrs; details: in vivo
[19] = AUC (0 to t) in Wistar rat at 2.5 mg/kg, im measured for 48 hrs by HPLC method; format: ADME, organism-based; set-up: dose 2.5 mg/kg, time 48 hrs; details: in vivo
[20] = AUC (0 to infinity) in Wistar rat at 2.5 mg/kg, im by HPLC method; format: ADME, organism-based; set-up: time infinity, route intramuscular, dose 2.5 mg/kg; details: in vivo
[21] = MRT (0 to t) in Wistar rat at 2.5 mg/kg, im measured for 48 hrs by HPLC method; format: ADME, organism-based; details: in vivo
[22] = MRT (0 to infinity) in Wistar rat at 2.5 mg/kg, im by HPLC method; format: ADME, organism-based; details: in vivo
J774.A1 [23] = test: Induction of cytoplasmic ROS generation in mouse J774.A1 cells at 2.5 ug/ml measured after 24 hrs by DCFH-DA staining based flow cytometry assay; format: functional, cell-based; details: dose 2.5 µg/ml
J774.A1 [24] = test: Induction of mitochondrial ROS generation in mouse J774.A1 cells at 2.5 ug/ml measured after 24 hrs by DCFH-DA staining based flow cytometry assay; format: functional, cell-based; details: dose 2.5 µg/ml
J774.A1 [25] = test: Activation of autophagy in mouse J774.A1 cells assessed as LC3-II expression by measuring ratio of LC3-II to LC3-I measured after 24 hrs by Western blot assay (reference value: 1.04); format: functional
J774.A1 [26] = test: Activation of autophagy in mouse J774.A1 cells assessed as LC3 accumulation measured after 24 hrs by immunofluorescence staining analysis; format: functional, cell-based
J774.A1 [27] = test: Activation of autophagy in mouse J774.A1 cells infected with Mycobacterium tuberculosis H37Rv assessed as increase in LC3 accumulation at 2.5 to 5 ug/ml measured after 24 hrs by immunofluorescence staining analysis; format: functional, cell-based; details: dose 2.5-5 µg/ml
[28] = Toxicity in Wistar rat assessed as abnormal behaviour at 2.5 mg/kg, im measured for 48 hrs; format: organism-based; details: in vivo
[29] = system: Mycobacterium tuberculosis; test: Antimycobacterial activity against Mycobacterium tuberculosis H37Rv infected in mouse J774.A1 cells assessed as log reduction of bacterial growth at 1X to 40X MIC measured after 4 days by visual colony counting analysis; format: functional; details: time 4 day
[30] = system: Mycobacterium tuberculosis; test: Antimycobacterial activity against Mycobacterium tuberculosis H37Rv infected in mouse J774.A1 cells assessed as log reduction of bacterial growth at 1X MIC measured after 1 days by visual colony counting analysis; format: functional; details: time 1 day
[31] = system: Mycobacterium tuberculosis; test: Antimycobacterial activity against Mycobacterium tuberculosis H37Rv infected in mouse J774.A1 cells assessed as log reduction of bacterial growth at 10X MIC measured after 1 days by visual colony counting analysis; format: functional; details: time 1 day

SMILES: CC(=O)c1c(C(F)(F)F)[n+]([O-])c2cc(-n3ccnc3)c(F)cc2[n+]1[O-]
- MIC [1]: 0.25 µg/mL (≈ 0.702 µM)
- IC50 (Vero): 46.5 µM
- selectivity ratio at 72 hrs [2]: 66.2

SMILES: CCOC(=O)c1c(C)[n+]([O-])c2cc(N3CCOCC3)c(F)cc2[n+]1[O-]
- MIC [1]: 64 µg/mL (≈ 182 µM)

SMILES: CCOC(=O)c1c(C)[n+]([O-])c2cc(-n3cncn3)c(F)cc2[n+]1[O-]
- MIC [1]: 0.125 µg/mL (≈ 0.375 µM)
- IC50 (Vero): 155 µM
- selectivity ratio at 72 hrs [2]: 412
- IC50 (J774.A1 [3]): 77.7 µM

SMILES: CCCC(=O)c1c(C)[n+]([O-])c2cc(F)c(F)cc2[n+]1[O-]
- MIC [1]: 8 µg/mL (≈ 28.3 µM)

SMILES: CCOC(=O)c1c(C)[n+]([O-])c2cc(N3CCN(C)CC3)c(F)cc2[n+]1[O-]
- MIC [1]: 8 µg/mL (≈ 22 µM)

SMILES: Cc1c(C(=O)OC(C)C)[n+]([O-])c2cc(-n3ccnc3)c(-n3ccnc3)cc2[n+]1[O-]
- MIC [1]: 8 µg/mL (≈ 20.3 µM)

SMILES: CCOC(=O)c1c(C(F)(F)F)[n+]([O-])c2cc(-n3cncn3)c(F)cc2[n+]1[O-]
- MIC [1]: 0.25 µg/mL (≈ 0.646 µM)
- IC50 (Vero): 35.4 µM
- selectivity ratio at 72 hrs [2]: 54.8

SMILES: CCOC(=O)c1c(C(F)(F)F)[n+]([O-])c2cc(-n3ccnc3)c(F)cc2[n+]1[O-]
- MIC [1]: 0.25 µg/mL (≈ 0.647 µM)
- IC50 (Vero): 19.4 µM
- selectivity ratio at 72 hrs [2]: 30

SMILES: CCOC(=O)c1c(C)[n+]([O-])c2cc(N3CCCC3)c(F)cc2[n+]1[O-]
- MIC [1]: 64 µg/mL (≈ 191 µM)

SMILES: Cc1c(C(=O)OCc2ccccc2)[n+]([O-])c2cc(F)c(F)cc2[n+]1[O-]
- MIC [1]: 0.5 µg/mL (≈ 1.44 µM)
- IC50 (Vero): 55.3 µM
- selectivity ratio at 72 hrs [2]: 38.3

SMILES: CCOC(=O)c1c(C)[n+]([O-])c2cc(N3CCCCC3)c(F)cc2[n+]1[O-]
- MIC [1]: 32 µg/mL (≈ 91.6 µM)

SMILES: Cc1c(C(=O)OCc2ccccc2)[n+]([O-])c2cc(F)c(-n3cncn3)cc2[n+]1[O-]
- MIC [1]: 0.125 µg/mL (≈ 0.316 µM)
- IC50 (Vero): 123 µM
- selectivity ratio at 72 hrs [2]: 328
- IC50 (J774.A1 [3]): 77.7 µM
- log(activity) [4]: 2.73
- log(activity) [5]: 1.56
- log(activity) [6]: 2.12
- log(activity) [7]: 0.74
- log(activity) [8]: 0.1
- Activity (Cell membrane [9]): Active
- Activity (Cell membrane [10]): Active
- Activity (J774.A1 [11]): Active
- Activity (J774.A1 [12]): Active
- Ratio (J774.A1 [13]): 1.74
- Ratio (J774.A1 [14]): 1.92
- Ratio (J774.A1 [15]): 2.59
- half-life [16]: 5.94 h
- Tmax [17]: 2 h
- Cmax [18]: 1560 ng/mL
- AUC(0-t) at 48 h [19]: 10100 ng·h/mL
- AUC(0-inf) [20]: 10600 ng·h/mL
- MRT last at 48 h [21]: 6.04 h
- MRT inf [22]: 7.38 h
- Activity (J774.A1 [23]): inactive
- Activity (J774.A1 [24]): inactive
- Ratio (J774.A1 [25]): 0.78
- Activity (J774.A1 [26]): inactive
- Activity (J774.A1 [27]): Active
- Activity [28]: Non-Toxic

SMILES: Cc1c(C(=O)OCc2ccccc2)[n+]([O-])c2cc(F)c(-n3ccnc3)cc2[n+]1[O-]
- MIC [1]: 0.25 µg/mL (≈ 0.634 µM)
- IC50 (Vero): 107 µM
- selectivity ratio at 72 hrs [2]: 169
- IC50 (J774.A1 [3]): 77.7 µM
- log(activity) [29]: 2.15
- log(activity) [30]: 0.04
- log(activity) [31]: 0.18

SMILES: CCCC(=O)c1c(C)[n+]([O-])c2cc(N3CCNCC3)c(F)cc2[n+]1[O-]
- MIC [1]: 16 µg/mL (≈ 45.9 µM)

SMILES: CCOC(=O)c1c(C)[n+]([O-])c2cc(F)c(F)cc2[n+]1[O-]
- MIC [1]: 1 µg/mL (≈ 3.52 µM)
- IC50 (Vero): 30.6 µM
- selectivity ratio at 72 hrs [2]: 8.7

SMILES: CC(=O)c1c(C)[n+]([O-])c2cc(N3CCNC(C)C3)c(F)cc2[n+]1[O-] (stereo not drawn)
- MIC [1]: 16 µg/mL (≈ 47.9 µM)
